In one assay the target is GST-Cldn4.Ecl2 (R4) (Mus musculus, UniProt O35054). It is filed as binding. Particulars: for Kd: read-out: calculated equilibrium affinity (KD).
Assay [1] concerns the target T1, Cldn-4 Mutant R4 (Mus musculus, UniProt O35054).
T1 construct: made in house; host or cells: E. coli BL21 (pLysS)
Kind of assay: Kd (1/s). The procedure:
(§1) Table printed on a drawing sheet, FIGURE 3
(§2) Title: Binding Kinetics of Various Peptides to Cldn-4 Mutant R4
Head of the field: Kd (1/s)
(§3) The processed specific binding sensorgrams are presented for each ligand. The 50 nM analyte concentration was repeated twice to confirm reproducibility. The binding kinetics was analyzed by “BIAevalution 3.1” software with 1:1 (langmuir) binding mode, and the binding constants were summarized in the table.
(§4) First copying reader's note: Panel B of FIGURE 3; panel A is a sensorgram plot and is left out.
(§5) Where the first naming reader finds the target: table_title: Binding Kinetics of Various Peptides to Cldn-4 Mutant R4

Assay [2] addresses T1, Cldn-4 Mutant R4. Kind of assay: KD (nM). The procedure:
as §1, §2
Head of the field: KD (nM)
as §3, §4, §5

The target of assay [3] is Claudin-4 Ecl2 domain (synthetic biotinylated peptide) (Mus musculus, UniProt O35054). The format is binding.
Another assay deals with GST protein (Schistosoma japonicum, UniProt P08515). The format is binding.
Chain of GST protein (P08515 whole entry, looked up): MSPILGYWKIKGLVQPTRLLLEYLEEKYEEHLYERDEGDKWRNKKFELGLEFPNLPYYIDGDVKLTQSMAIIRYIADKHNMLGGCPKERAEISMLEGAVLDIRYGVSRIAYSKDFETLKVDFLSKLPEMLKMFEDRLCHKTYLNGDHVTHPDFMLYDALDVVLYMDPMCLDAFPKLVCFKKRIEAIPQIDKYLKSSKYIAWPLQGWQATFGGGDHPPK
Assay [4] deals with T1, Cldn-4 Mutant R4.

Entries after “also recorded” stand apart in the source; their conditions may differ. Where no end group is shown, it is not given here.

T1 sequence (O35054 117-181, change not shown): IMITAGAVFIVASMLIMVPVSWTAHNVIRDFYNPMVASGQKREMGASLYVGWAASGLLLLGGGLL

For APWTEHSYYLSL [CC4P-13R], the off-rate entry at GST-Cldn4.Ecl2 (R4) is recorded as “slowest off-rate”.

For the sequence “SPWSEPAYTLAP [CC4P-5] [listing 1 of 2 here]”, on GST-Cldn4.Ecl2 (R4), the “KD (stated in words)” value is “nanomolar level” and the “specific binding to Cldn4 Ecl2 (GST-Cldn4.R4)” value (“specific binding to Cldn4 Ecl2” below) was “clear specific binding; also recorded: significant affinity”.

Consider VTHKTCPPACWP [CC4P-2], for which the “specific binding to Cldn4 Ecl2” value on GST-Cldn4.Ecl2 (R4) was “no specific binding”.

Turning to “APWTEHSYYLSL [CC4P-13] [listing 1 of 2 here]”, the “Kd” value in the assay with Cldn-4 Mutant R4 [1] was found to be 0.000742 s⁻¹.

As to SSYSGNYPYSIL [Cpe30 MT1], on GST-Cldn4.Ecl2 (R4), the “specific binding to Cldn4 Ecl2” value is listed as “no specific binding; also recorded: did not bind”.

Consider “NSSYSGNYPYSILFQKF [Cpe17, NSSYSGNYPYSILFQKF]”, for which the Kd at Cldn-4 Mutant R4 [2] is 2.12 nM. Besides, at GST-Cldn4.Ecl2 (R4), the off-rate result was “slightly slower off-rate”, the on-rate entry was “similar”, the “specific binding to Cldn4 Ecl2” value was “strong specific binding” and the Kd is 1.57 nM.

On to “SLDAGQYVLVMKANSSYSGNYPYSILFQKF [Cpe30] [listing 1 of 2 here]”, for which, in assay [3], the “binding to lariat Ecl2 (cyclic, disulfide bond)” value was “failed to bind”; the “binding to linear B-Ecl2 peptide” value was “No specific binding”; the “binding to tethered Ecl2 (B-Ecl2-B, biotin at both termini)” value is on record as “failed to bind”. Also, at GST-Cldn4.Ecl2 (R4), the on-rate entry is on record as “similar”, the “specific binding to Cldn4 Ecl2” value is “optimal binding activity; also recorded: strong specific binding” and the Kd was 2.56 nM. In addition, at GST protein, the “binding to GST protein only” value is recorded as “did not bind”.

Take “APWTEHSYYLSL [CC4P-13] [listing 2 of 2 here]”: on GST-Cldn4.Ecl2 (R4), the “KD (stated in words)” value is given as “nanomolar level” and the “specific binding to Cldn4 Ecl2” value is “clear specific binding; also recorded: orientation of biotinylation did not affect the binding; also recorded: significant affinity”.

As to “SLDAGQYVLVMKANSSYSGNYPYSILFQKF [Cpe30] [listing 2 of 2 here]”, the “Ka” value on Cldn-4 Mutant R4 [4] stood at 130000 M⁻¹ s⁻¹.

On to “SPWSEPAYTLAP [CC4P-5] [listing 2 of 2 here]”, for which the “Kd” value with Cldn-4 Mutant R4 [1] turned out to be 0.00141 s⁻¹. Also, in the assay with Cldn-4 Mutant R4 [4], the “Ka” value is 315000 M⁻¹ s⁻¹.

Consider ASNSSYSGNYSIL [Cpe30 MT3], for which the “specific binding to Cldn4 Ecl2” value at GST-Cldn4.Ecl2 (R4) was “did not bind”.

(Values after patent US8258257B2 (The Regents of the University of California, priority 2008, dated 2012).)
